Reference: paper PMC7580725 (Drug Delivery, 2020)

Tests used:
[1] = Water contact angle of compressed powder (wettability); type: physicochemical; conditions: pure water drop on compressed slice, Mean ± S.D., n = 3
Description: Powdered materials of different formulations were measured for angle of repose applying a BT 1000 powder analyzer (DanDong Better size Instruments, China). The wettability of the powders was evaluated using a contact angle analyzer (Dataphysics OCA-35, Filderstadt, Germany). Prior to measurement, 300 mg of powder was dried and then compressed into a slice with a diameter size of approximately 12 mm under a pressure of 10 MPa for one minute. […] The dynamic wetting angle was recorded using a video system at the speed of 6 frames/min.

[2] = Dissolution test under sink condition; type: physicochemical; conditions: deionized water with 0.3% (w/v) SDS, 900 mL, 37 °C, 100 rpm, 20 mg FNB
Description: The dissolution test under sink condition was conducted utilizing a ZRS-8G dissolution tester equipped with USP paddle apparatus (TDTF, Tianjin, China) at 37 °C and 100 rpm. […] Aliquot release medium (5 mL) was withdrawn at predetermined time intervals and an equal volume of fresh medium was added to compensate the sampling loss. The obtained samples were filtered through a 0.22 μm microporous membrane, and determined at 288 nm by UV spectrophotometry (TU-1901, Beijing, China).

Contact angle [1]: 87.2 ± 0.4 ° | drug release after 5 min [2]: 5.42%
Structure (SMILES): CC(C)OC(=O)C(C)(C)Oc1ccc(C(=O)c2ccc(Cl)cc2)cc1 [FNB, Fenofibrate]
